According to patent US7638508B2, “Glucocorticosteroid compound having anti-inflammatory activity” (Glaxo Group Limited, priority 2003, dated 2009):

Assays:
Assay type in all cases: cell-based
[1] = biological target: T1, glucocorticoid receptor (Homo sapiens, UniProt P04150); assay: NF-κB/ELAM promoter sPAP reporter assay in A549 cells, TNF stimulated (transrepressive activity of a glucocorticoid agonist); parameters: A549 cells stably transfected with a reporter gene containing the NF-κB responsive elements; endogenous in cells; host or cells: A549 cells; conditions: compound 1 hour at 37° C., then TNF 10 ng/ml for 16 hours, read-out: EC50 (transrepression, NF-κB sPAP reporter)
T1 sequence (P04150 1-777): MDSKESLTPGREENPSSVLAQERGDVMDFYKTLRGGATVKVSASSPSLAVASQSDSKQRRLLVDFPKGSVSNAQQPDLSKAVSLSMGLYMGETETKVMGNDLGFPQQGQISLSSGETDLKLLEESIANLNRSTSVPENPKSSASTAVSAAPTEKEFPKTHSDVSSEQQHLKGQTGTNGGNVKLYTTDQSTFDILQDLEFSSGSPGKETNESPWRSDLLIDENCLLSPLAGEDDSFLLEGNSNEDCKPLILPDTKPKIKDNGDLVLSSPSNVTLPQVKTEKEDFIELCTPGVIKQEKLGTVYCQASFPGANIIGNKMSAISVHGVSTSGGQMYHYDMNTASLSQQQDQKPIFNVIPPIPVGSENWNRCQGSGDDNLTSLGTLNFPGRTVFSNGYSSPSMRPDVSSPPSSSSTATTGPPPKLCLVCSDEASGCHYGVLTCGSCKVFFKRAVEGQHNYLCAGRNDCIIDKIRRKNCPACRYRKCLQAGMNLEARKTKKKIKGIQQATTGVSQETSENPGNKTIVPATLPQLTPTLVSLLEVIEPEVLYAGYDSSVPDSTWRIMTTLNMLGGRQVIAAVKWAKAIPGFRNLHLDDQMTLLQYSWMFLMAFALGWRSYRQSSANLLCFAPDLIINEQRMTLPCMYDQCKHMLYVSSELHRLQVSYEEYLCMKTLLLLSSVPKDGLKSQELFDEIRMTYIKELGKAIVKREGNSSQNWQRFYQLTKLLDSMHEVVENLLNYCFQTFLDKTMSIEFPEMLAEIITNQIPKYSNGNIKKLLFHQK
Procedure: (§1) Pharmacological activity may be assessed in functional in vitro assays of glucocorticoid agonist activity.
The functional assay based on that described by K. P. Ray et al., Biochem J. (1997), 328, 707-715 provides a measure of transrepressive activity of a glucocorticoid agonist. A549 cells stably transfected with a reporter gene containing the NF-κB responsive elements from the ELAM gene promoter coupled to sPAP (secreted alkaline phosphatase) are treated with test compounds at appropriate doses for 1 hour at 37° C. The cells are then stimulated with tumour necrosis factor (TNF, 10 ng/ml) for 16 hours, at which time the amount of alkaline phosphatase produced is measured by a standard colourimetric assay. Dose response curves are constructed from which EC50 values may be estimated.

[2] = biological target: T2, Progesterone Receptor (Homo sapiens, UniProt P06401); assay: Assay for Progesterone Receptor Activity: alkaline phosphatase upregulation in T47D cells; conditions: 24 hours at 37° C.
T2 construct: The human breast cancer cell line T47D has been reported to upregulate an endogenous alkaline phosphatase in response to progestins; endogenous in cells; host or cells: T47D cells
T2 sequence (P06401 1-933): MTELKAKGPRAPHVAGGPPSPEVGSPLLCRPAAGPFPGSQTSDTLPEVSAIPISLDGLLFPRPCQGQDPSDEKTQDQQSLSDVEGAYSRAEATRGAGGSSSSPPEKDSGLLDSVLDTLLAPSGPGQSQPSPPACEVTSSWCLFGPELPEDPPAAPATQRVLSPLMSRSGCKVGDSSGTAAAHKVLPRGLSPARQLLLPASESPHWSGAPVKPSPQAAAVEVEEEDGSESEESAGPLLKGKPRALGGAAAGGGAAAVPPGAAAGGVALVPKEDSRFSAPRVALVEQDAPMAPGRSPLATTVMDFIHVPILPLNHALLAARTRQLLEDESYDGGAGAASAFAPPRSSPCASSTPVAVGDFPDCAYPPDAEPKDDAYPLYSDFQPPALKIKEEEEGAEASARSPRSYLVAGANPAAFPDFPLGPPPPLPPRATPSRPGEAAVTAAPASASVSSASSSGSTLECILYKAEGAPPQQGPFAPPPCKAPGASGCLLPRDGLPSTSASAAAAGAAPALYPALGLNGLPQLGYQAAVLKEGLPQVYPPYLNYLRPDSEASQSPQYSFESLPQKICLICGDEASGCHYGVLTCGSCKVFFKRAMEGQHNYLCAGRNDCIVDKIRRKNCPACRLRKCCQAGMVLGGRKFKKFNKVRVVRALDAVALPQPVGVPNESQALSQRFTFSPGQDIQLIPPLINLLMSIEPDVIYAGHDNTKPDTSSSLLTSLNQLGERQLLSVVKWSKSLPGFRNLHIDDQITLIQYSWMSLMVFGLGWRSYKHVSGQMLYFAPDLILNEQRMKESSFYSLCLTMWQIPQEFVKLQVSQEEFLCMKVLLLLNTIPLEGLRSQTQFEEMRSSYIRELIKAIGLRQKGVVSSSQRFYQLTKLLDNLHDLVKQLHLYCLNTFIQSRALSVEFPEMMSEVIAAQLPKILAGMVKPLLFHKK
Procedure: Assay for Progesterone Receptor Activity
The human breast cancer cell line T47D has been reported to upregulate an endogenous alkaline phosphatase in response to progestins (Di Lorenzo et al., Cancer Research (1991) 51, 4470-4475. T47D cells were seeded into 96 well plates at a density of 1×10^5 cells per well and grown overnight at 37° C. Steroids were dissolved in DMSO, added to the cells (final DMSO concentration 0.7%), and incubated for 24 hours at 37° C. The cells were then washed with PBS and lysed with RIPA buffer (1% IGEPAL, 0.5% Na deoxycholate, 0.1% SDS in phosphate buffered saline). Alkaline phosphatase activity was measured spectrophotometrically (405 nm) using p-nitrophenylphosphate (1.5 mg/ml) as a substrate dissolved in 1 M diethanolamine, 0.28M NaCl, 0.5 mM MgCl2. Dose response curves were constructed from which EC50 values were estimated.

[3] = biological target: T1, glucocorticoid receptor; assay: MMTV-LTR renilla luciferase reporter assay in A549 cells (direct transactivation of gene expression); conditions: 6 hour at 37° C., read-out: maximal response relative to Dexamethasone (100%)
Procedure: as §1
The functional assay based on that described by R. J. H. Austin et al., Eur Resp J. (2002), 20, 1386-1392 measures the ability of compounds to directly transactivate gene expression. A549 cells stably transfected with a reporter gene containing the glucocorticoid responsive region of the mouse mammary tumour virus long terminal repeat (MMTV-LTR) coupled to renilla luciferase were treated with test compounds at appropriate doses for 6 hour at 37° C. The amount of luciferase activity present within the cells is then determined by measuring the light emitted following incubation with a suitable substrate.

| Compound | EC50 [1] | EC50 [2] | Emax [3] |
| --- | --- | --- | --- |
| C[C@@H]1C[C@H]2[C@@H]3C[C@H](F)C4=CC(=O)C=C[C@]4(C)[C@@]3(F)[C@@H](O)C[C@]2(C)[C@@]1(OC(=O)c1ccc(C#N)cc1)C(=O)OCC#N [Example 8, 17α-(4-Cyanobenzoyl)oxy-6α,9α-difluoro-11β-hydroxy-16α-methyl-3-oxo-androsta-1,4-diene-17β-carboxylic Acid Cyanomethyl Ester] | ≤ 0.0001 µM | > 0.1 µM | < 35% |
| CSc1ccc(C(=O)O[C@]2(C(=O)OCC#N)[C@H](C)C[C@H]3[C@@H]4C[C@H](F)C5=CC(=O)C=C[C@]5(C)[C@@]4(F)[C@@H](O)C[C@@]32C)s1 [Example 15, 6α,9α-Difluoro-11β-hydroxy-16α-methyl-17α-(5-methylthio-thiophene-2-carbonyl)oxy-3-oxo-androsta-1,4-diene-17β-carboxylic Acid Cyanomethyl Ester] | ≤ 0.0001 µM |  | < 35% |
| C[C@@H]1C[C@H]2[C@@H]3C[C@H](F)C4=CC(=O)CC[C@]4(C)[C@@]3(F)[C@@H](O)C[C@]2(C)[C@@]1(OC(=O)C1C(C)(C)C1(C)C)C(=O)OCC#N [Example 18, 6α,9α-Difluoro-11β-hydroxy-16α-methyl-3-oxo-17α-(2,2,3,3-tetramethycyclopropylcarbonyl)oxy-androst-4-ene-17 b-carboxylic Acid Cyanomethyl Ester] |  | > 0.1 µM | < 35% |
| C[C@@H]1C[C@H]2[C@@H]3C[C@H](F)C4=CC(=O)C=C[C@]4(C)[C@@]3(F)[C@@H](O)C[C@]2(C)[C@@]1(OC(=O)C1C(C)(C)C1(Cl)Cl)C(=O)OCC#N (stereo partly drawn) [Example 20, 17α-(2,2-Dichloro-3,3-dimethylclopropylcarbonyl)oxy-6α,9α-difluoro-11β-hydroxy-16α-methyl-3-oxo-androsta-1,4-diene-17β-carboxylic Acid Cyanomethyl Ester] | ≤ 0.0001 µM | > 0.1 µM | < 35% |
| C[C@@H]1C[C@H]2[C@@H]3C[C@H](F)C4=CC(=O)C=C[C@]4(C)[C@@]3(F)[C@@H](O)C[C@]2(C)[C@@]1(OC(=O)c1ccc(S(C)(=O)=O)s1)C(=O)SCC#N [Example 23, 6α,9α-Difluoro-11β-hydroxy-16α-methyl-17α-(5-methylsulphonyl-thiophene-2-carbonyl)oxy-3-oxo-androsta-1,4-diene-17β-carbothioic Acid S-cyanomethyl Ester] |  | > 0.1 µM | < 35% |
| C[C@@H]1C[C@H]2[C@@H]3C[C@H](F)C4=CC(=O)C=C[C@]4(C)[C@@]3(F)[C@@H](O)C[C@]2(C)[C@@]1(OC(=O)c1ccc(C(F)(F)F)o1)C(=O)SCC#N [Example 24, 6α,9α-Difluoro-11β-hydroxy-16α-methyl-3-oxo-17α-(5-trifluoromethyl-furan-2-carbonyl)oxy-androsta-1,4-diene-17β-carbothioic Acid S-cyanomethyl Ester] |  | > 0.1 µM | < 35% |
| C[C@@H]1C[C@H]2[C@@H]3C[C@H](F)C4=CC(=O)C=C[C@]4(C)[C@@]3(F)[C@@H](O)C[C@]2(C)[C@@]1(OC(=O)c1cccc(SC(F)F)c1)C(=O)SCC#N [Example 25, 6α,9α-Difluoro-17α-(3-(difluoromethylthio)benzoyl)oxy-11β-hydroxy-16α-methyl-3-oxo-androsta-1,4-diene-17β-carbothioic Acid S-cyanomethyl Ester] |  | > 0.1 µM | < 35% |
